According to PubChem BioAssay (NCI):
“And” between values parts separate entries of the source, which are not always exact repeats. Equal values may be shown once.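 Tested at 5 concentrations; 48 h exposure; 96-well plates; endpoints linearly interpolated, else capped at highest concentration. At the GI50, growth is halved. TGI: total growth inhibition.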

tested on: MALME-3M melanoma; test: DTP human tumour cell line panel, 48 h

| SMILES | TGI [µM] |
| --- | --- |
| CCOC(=O)C1Sc2ccccc2N=C1C (centres undefined) | > 100 |

tested on: UACC-62 melanoma; test: DTP human tumour cell line panel, 48 h

| SMILES | TGI | GI50 |
| --- | --- | --- |
| C[C@@]1(O)CC[C@]2(C)C3CCCC3[C@H]12 (some centres undefined) | > 100 µM | – |
| CC[C@@H](c1ccc(O)c(O)c1)[C@@H](CC)c1ccc(O)c(O)c1 | 23.4 µM | 10400 nM |
| O=C1OCC2=C1C(c1cccc(Br)c1)c1cc3c(cc1N2CCO)OCCO3 (centres undefined) | > 23.7 µM | 22 nM |
| COc1cc(-c2nn(-c3cccc(NC(=O)c4ccccc4)c3)cc2-c2ccncc2)ccc1Cl | > 100 µM | 568 nM |
| Cc1cc(Nc2ccc(C)c(Cl)c2)n2nc(C(F)(F)F)nc2n1 | 50.1 µM | 19600 nM |
| COc1ccc(Cn2c(Br)c3c(c2Br)-c2nc(N)sc2CC3)cc1 | 26 µM | 6970 nM |
| CC(=O)[O-].CC(=O)[O-].O=C(N/N=C/c1cc(Cl)cc(Cl)c1O)c1ccncc1.[Cu+2] | > 100 µM | – |
| O=C1CSC(=S)N1/N=C/c1ccc(Cl)c([N+](=O)[O-])c1 | 64.8 µM | – |
| O=C(Nc1nc(=S)[nH][nH]1)C(=O)C(C(=O)c1ccc2ccccc2c1)C1OC(=O)c2ccccc21 (centres undefined) | 30.2 µM | – |
| CCCCCCCCCCSC(=N)N (tested in a mixture with another compound) | 3.96 µM | 1950 nM |
| CCOc1ccc(NC2=CC(=O)C(=O)c3ccccc32)cc1 | 3.2 µM | – |
| Cc1nc(-c2nc(C)c(C(=O)NNC(=O)C[n+]3ccccc3)s2)sc1C(=O)NNC(=O)C[n+]1ccccc1 | > 100 µM | – |
| O=C1c2ccccc2C(=O)c2c(/C=C\N3CCCCC3)ccnc21 | 1.58 µM | – |
| C=C1C[C@H](O)[C@H](Br)C(C)(C)[C@@]12CCC(C)=C(Cl)C2 | 3.15 µM | 675 nM |
| Cc1ccc(S(=O)(=O)N2CCC2c2ccccc2)cc1 (centres undefined) | > 100 µM | – |
| c1ccc(-c2n(Cc3ccc4ccccc4n3)cc[n+]2Cc2ccc3ccccc3c2)cc1 | 2.06 µM | 631 nM |
| O=C(Nc1cccc(C(F)(F)F)c1)Nc1cccc(C(F)(F)F)c1 | 2.66 µM | 702 nM |
| CC(C)(C)[Si](C)(C)OC1[C@@H](O[Si](C)(C)C(C)(C)C)[C@@H](CNC(=O)NC(=O)C(F)(F)F)O[C@H]1n1cnc2c(NC(=O)Nc3ccccc3)ncnc21 (some centres undefined) | 15.9 µM | 7450 nM |
| CCOC(=O)n1cc(C2=C(c3ccc(OC)c(OC)c3)COC2=O)c2ccccc21 | > 100 µM | 43.6 nM |
| CC(=C(c1ccc(OCCN2CCCCC2)cc1)c1ccc(OCCN2CCCCC2)cc1)c1ccc(Cl)cc1 | 0.845 µM | 442 nM |
| C=C(C)C(=O)O[C@@H]1C[C@@]2(C)O[C@@H]2C[C@H](O)/C(C)=C/[C@H]2OC(=O)C(=C)[C@@H]21 | > 100 µM | – |
| C=CC(=O)Nc1cc(Nc2nccc(-c3cn(C)c4ccccc34)n2)c(OC)cc1N(C)CCN(C)C | 3.61 µM and 3.4 µM | 1850 nM and 1710 nM |
| CC(=O)OC1(C)N=NC2(CCCCC2)O1 (centres undefined) | > 100 µM | – |
| Cc1ccc(-c2nc(N3CCNCC3)c3oc(-c4ccc(C)cc4)nc3n2)cc1 | 28.6 µM | 13300 nM |
| [O-][Cl+3]([O-])([O-])[O-].[O]=[Ru]=[O].c1ccc(-c2ccccn2)nc1.c1ccc(-c2ccccn2)nc1 | > 100 µM | > 100000 nM |
| Cc1cc2c(cc1C)[n+](=O)c(C(=O)c1ccccc1)c(C(F)F)n2[O-] | 96.9 µM | 18400 nM |
| COc1cc2c(cc1OC)C(Cl)C(c1ccc(F)cc1)=C2Cl (centres undefined) | 29.8 µM | – |

tested on: MOLT-4 leukemia; test: DTP human tumour cell line panel, 48 h

| SMILES | TGI | GI50 |
| --- | --- | --- |
| C[C@@]1(O)CC[C@]2(C)C3CCCC3[C@H]12 (some centres undefined) | > 100 µM | – |
| CC[C@@H](c1ccc(O)c(O)c1)[C@@H](CC)c1ccc(O)c(O)c1 | 22.5 µM | 4210 nM |
| O=C1OCC2=C1C(c1cccc(Br)c1)c1cc3c(cc1N2CCO)OCCO3 (centres undefined) | > 42.2 µM | 225 nM |
| COc1cc(-c2nn(-c3cccc(NC(=O)c4ccccc4)c3)cc2-c2ccncc2)ccc1Cl | > 100 µM | 701 nM |
| Cc1cc(Nc2ccc(C)c(Cl)c2)n2nc(C(F)(F)F)nc2n1 | 94.3 µM | 19900 nM |
| COc1ccc(Cn2c(Br)c3c(c2Br)-c2nc(N)sc2CC3)cc1 | 21.7 µM | 962 nM |
| CC(=O)[O-].CC(=O)[O-].O=C(N/N=C/c1cc(Cl)cc(Cl)c1O)c1ccncc1.[Cu+2] | > 100 µM | – |
| O=C1CSC(=S)N1/N=C/c1ccc(Cl)c([N+](=O)[O-])c1 | > 100 µM | – |
| O=C(Nc1nc(=S)[nH][nH]1)C(=O)C(C(=O)c1ccc2ccccc2c1)C1OC(=O)c2ccccc21 (centres undefined) | 21.1 µM | – |
| CCCCCCCCCCSC(=N)N (tested in a mixture with another compound) | 5.51 µM | 1850 nM |
| CCOc1ccc(NC2=CC(=O)C(=O)c3ccccc32)cc1 | 80.1 µM | – |
| Cc1nc(-c2nc(C)c(C(=O)NNC(=O)C[n+]3ccccc3)s2)sc1C(=O)NNC(=O)C[n+]1ccccc1 | > 100 µM | – |
| O=C1c2ccccc2C(=O)c2c(/C=C\N3CCCCC3)ccnc21 | 41.1 µM | – |
| C=C1C[C@H](O)[C@H](Br)C(C)(C)[C@@]12CCC(C)=C(Cl)C2 | 0.795 µM | 229 nM |
| Cc1ccc(S(=O)(=O)N2CCC2c2ccccc2)cc1 (centres undefined) | > 100 µM | – |
| c1ccc(-c2n(Cc3ccc4ccccc4n3)cc[n+]2Cc2ccc3ccccc3c2)cc1 | 4.38 µM | 1640 nM |
| O=C(Nc1cccc(C(F)(F)F)c1)Nc1cccc(C(F)(F)F)c1 | 6.44 µM | 1340 nM |
| CC(C)(C)[Si](C)(C)OC1[C@@H](O[Si](C)(C)C(C)(C)C)[C@@H](CNC(=O)NC(=O)C(F)(F)F)O[C@H]1n1cnc2c(NC(=O)Nc3ccccc3)ncnc21 (some centres undefined) | 7.03 µM | 1670 nM |
| CCOC(=O)n1cc(C2=C(c3ccc(OC)c(OC)c3)COC2=O)c2ccccc21 | > 100 µM | 58.1 nM |
| CC(=C(c1ccc(OCCN2CCCCC2)cc1)c1ccc(OCCN2CCCCC2)cc1)c1ccc(Cl)cc1 | 0.982 µM | 449 nM |
| C=C(C)C(=O)O[C@@H]1C[C@@]2(C)O[C@@H]2C[C@H](O)/C(C)=C/[C@H]2OC(=O)C(=C)[C@@H]21 | > 100 µM | – |
| C=CC(=O)Nc1cc(Nc2nccc(-c3cn(C)c4ccccc34)n2)c(OC)cc1N(C)CCN(C)C | 5.08 µM and 3.66 µM | 1770 nM and 1490 nM |
| CC(=O)OC1(C)N=NC2(CCCCC2)O1 (centres undefined) | > 100 µM | – |
| Cc1ccc(-c2nc(N3CCNCC3)c3oc(-c4ccc(C)cc4)nc3n2)cc1 | 4.69 µM | 2200 nM |
| [O-][Cl+3]([O-])([O-])[O-].[O]=[Ru]=[O].c1ccc(-c2ccccn2)nc1.c1ccc(-c2ccccn2)nc1 | > 100 µM | > 100000 nM |
| C=C1C(=O)O[C@H]2[C@H]1CC/C(CNC(=O)c1cc3ccccc3[nH]1)=C\CC[C@@]1(C)O[C@@H]21 | 4.55 µM | 1600 nM |
| Cc1cc2c(cc1C)[n+](=O)c(C(=O)c1ccccc1)c(C(F)F)n2[O-] | 43.1 µM | 8020 nM |
| COc1cc2c(cc1OC)C(Cl)C(c1ccc(F)cc1)=C2Cl (centres undefined) | 13.1 µM | – |
| CCOC(=O)C1Sc2ccccc2N=C1C (centres undefined) | > 100 µM | – |

tested on: LOX IMVI melanoma; test: DTP human tumour cell line panel, 48 h

| SMILES | TGI [µM] | GI50 [nM] |
| --- | --- | --- |
| C[C@@]1(O)CC[C@]2(C)C3CCCC3[C@H]12 (some centres undefined) | > 100 | – |
| CC[C@@H](c1ccc(O)c(O)c1)[C@@H](CC)c1ccc(O)c(O)c1 | 9.91 | 2850 |
| O=C1OCC2=C1C(c1cccc(Br)c1)c1cc3c(cc1N2CCO)OCCO3 (centres undefined) | 9.28 | 107 |
| COc1cc(-c2nn(-c3cccc(NC(=O)c4ccccc4)c3)cc2-c2ccncc2)ccc1Cl | > 100 | 567 |
| Cc1cc(Nc2ccc(C)c(Cl)c2)n2nc(C(F)(F)F)nc2n1 | 73.9 | 26500 |
| COc1ccc(Cn2c(Br)c3c(c2Br)-c2nc(N)sc2CC3)cc1 | 16.3 | 3350 |
| CC(=O)[O-].CC(=O)[O-].O=C(N/N=C/c1cc(Cl)cc(Cl)c1O)c1ccncc1.[Cu+2] | > 100 | – |
| O=C1CSC(=S)N1/N=C/c1ccc(Cl)c([N+](=O)[O-])c1 | 47.7 | – |
| O=C(Nc1nc(=S)[nH][nH]1)C(=O)C(C(=O)c1ccc2ccccc2c1)C1OC(=O)c2ccccc21 (centres undefined) | 39 | – |
| CCCCCCCCCCSC(=N)N (tested in a mixture with another compound) | 11.1 | 2720 |
| CCOc1ccc(NC2=CC(=O)C(=O)c3ccccc32)cc1 | 2.77 | – |
| Cc1nc(-c2nc(C)c(C(=O)NNC(=O)C[n+]3ccccc3)s2)sc1C(=O)NNC(=O)C[n+]1ccccc1 | > 100 | – |
| O=C1c2ccccc2C(=O)c2c(/C=C\N3CCCCC3)ccnc21 | 1.68 | – |
| C=C1C[C@H](O)[C@H](Br)C(C)(C)[C@@]12CCC(C)=C(Cl)C2 | 2.07 | 483 |
| Cc1ccc(S(=O)(=O)N2CCC2c2ccccc2)cc1 (centres undefined) | > 100 | – |
| c1ccc(-c2n(Cc3ccc4ccccc4n3)cc[n+]2Cc2ccc3ccccc3c2)cc1 | 2.31 | 955 |
